One block for each molecule: values may come before it.
Molecular target: T1, Bcl-2 protein (Recombinant Human Bcl-2 Protein) (Homo sapiens, UniProt P10415)
T1 construct: purchased Novus NBP2-34889
Test: Binding evaluation of mixture library compounds to Bcl-2 using AS-MS (affinity selection mass spectrometry)
Conditions: for ASMS ratio (%) n = 1 / ASMS ratio (%) n = 2: ASMS Ratio(%)=(A−C)/B×100; for ASMS ratio (%) n = 1: replicate n = 1; for ASMS ratio (%) n = 2: replicate n = 2
Method in brief: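 ASMS Ratio (%) was calculated as (A−C)/B×100, where A is the protein sample after SEC, B the protein-free sample without SEC and C the protein-free sample after SEC. Each compound was at […] in a 1200-member pool with 20 μM Bcl-2, incubated 1 h at 23° C.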

[1] = AS-MS on the mixture of 1200 library compounds
[2] = AS-MS, mixture of 1200 compounds, Bcl-2

T1 sequence (P10415 whole entry): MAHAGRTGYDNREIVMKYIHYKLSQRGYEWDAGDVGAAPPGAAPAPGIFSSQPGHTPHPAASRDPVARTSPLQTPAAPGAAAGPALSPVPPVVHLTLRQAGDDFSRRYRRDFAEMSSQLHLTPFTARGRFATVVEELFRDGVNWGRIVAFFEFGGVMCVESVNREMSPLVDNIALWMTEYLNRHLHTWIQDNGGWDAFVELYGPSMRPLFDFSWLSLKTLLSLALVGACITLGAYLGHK

ASMS ratio (%) (n = 2): 0.0%
Molecule: CCOc1cccc(C#Cc2ccccc2C(=O)N2CCN(c3ccc(C(=O)NS(=O)(=O)c4ccc(NCCSc5ccccc5)c(C(F)(F)F)c4)cc3)CC2)c1 [B2R029-01, 4-[4-[2-[2-(3-Ethoxyphenyl)ethynyl]benzoyl]piperazin-1-yl]-N-[4-(2-phenylsulfanylethylamino)-3-(trifluoromethyl)phenyl]sulfonylbenzamide]

ASMS ratio (%) n = 1 [1]: 7.3% | ASMS ratio (%) n = 2 [1]: −8.8%
Molecule: CCOc1cncc(-c2ccc(CN3CCN(c4ccc(C(=O)N(C)CC56CC7CC(CC(C7)C5)C6)cc4)CC3)cc2C)c1 [B3A048-01, N-(1-Adamantylmethyl)-4-[4-[[4-(5-ethoxypyridin-3-yl)-3-methylphenyl]methyl]piperazin-1-yl]-N-methylbenzamide]

ASMS ratio (%) n = 1 (AS-MS, mixture library, Bcl-2): 0.9% | ASMS ratio (%) n = 2 (AS-MS, mixture library, Bcl-2): −0.3%
Molecule: CCOc1cncc(-c2ccc(C(=O)N3CCN(c4ccc(C(=O)NS(C)(=O)=O)nn4)CC3)cc2C)c1 [B2I004-01, 6-[4-[4-(5-Ethoxypyridin-3-yl)-3-methylbenzoyl]piperazin-1-yl]-N-methylsulfonylpyridazine-3-carboxamide]

ASMS ratio (%) n = 1 (AS-MS, mixture library, Bcl-2): 6.6% | ASMS ratio (%) n = 2 (AS-MS, mixture library, Bcl-2): −4.1%
Molecule: CCOc1cccc(C#Cc2cncc(C(=O)N3CCN(c4ccc(C(=O)NS(=O)(=O)c5ccc(NCCSc6ccccc6)c([N+](=O)[O-])c5)cc4)CC3)c2)c1 [B2Q031-01, 4-[4-[5-[2-(3-Ethoxyphenyl)ethynyl]pyridine-3-carbonyl]piperazin-1-yl]-N-[3-nitro-4-(2-phenylsulfanylethylamino)phenyl]sulfonylbenzamide]

ASMS ratio (%) n = 1 [1]: 0.0% | ASMS ratio (%) n = 2 [1]: −8.4%
Molecule: CCOc1cccc(-c2csc(C(=O)N3CCN(c4ccc(C(=O)N(C)CC56CC7CC(CC(C7)C5)C6)nn4)CC3)c2)c1 [B3A001-01, N-(1-Adamantylmethyl)-6-[4-[4-(3-ethoxyphenyl)thiophene-2-carbonyl]piperazin-1-yl]-N-methylpyridazine-3-carboxamide]

ASMS ratio (%) (n = 1): 0.0% | ASMS ratio (%) (n = 2): 0.0%
Molecule: CCOc1cncc(-c2cnn(-c3cc(C(=O)N4CCN(c5ccc(C(=O)NS(=O)(=O)C(C)(C)C)nn5)CC4)cc(C(F)(F)F)c3)c2)c1 [B2L022-01, N-tert-Butylsulfonyl-6-[4-[3-[4-(5-ethoxypyridin-3-yl)pyrazol-1-yl]-5-(trifluoromethyl)benzoyl]piperazin-1-yl]pyridazine-3-carboxamide]

ASMS ratio (%) n = 1 [2]: 0.0% | ASMS ratio (%) n = 2 [2]: 0.0%
Molecule: CCOc1cncc(C#Cc2ccccc2CN2CCN(c3ccc(C(=O)NCC(F)(F)F)nn3)CC2)c1 [B1K096-01, 6-[4-[[2-[2-(5-Ethoxypyridin-3-yl)ethynyl]phenyl]methyl]piperazin-1-yl]-N-(2,2,2-trifluoroethyl)pyridazine-3-carboxamide]

ASMS ratio (%) n = 1 (AS-MS, mixture library, Bcl-2): 4.2% | ASMS ratio (%) n = 2 (AS-MS, mixture library, Bcl-2): −2.3%
Molecule: CCOc1cccc(-c2ccccc2CCC(=O)N2CCN(c3ccc(C(=O)NS(=O)(=O)c4ccc(NCCSc5ccccc5)c([N+](=O)[O-])c4)cc3)CC2)c1 [B2Q033-01, 4-[4-[3-[2-(3-Ethoxyphenyl)phenyl]propanoyl]piperazin-1-yl]-N-[3-nitro-4-(2-phenylsulfanylethylamino)phenyl]sulfonylbenzamide]

ASMS ratio (%) n = 1 [2]: 7.4% | ASMS ratio (%) n = 2 [2]: −16.1%
Molecule: CCOc1cccc(-c2ccc(C(=O)N3CCN(c4ccc(C(=O)NCC56CC7CC(CC(C7)C5)C6)cc4)CC3)cc2C)c1 [B1A025-01, N-(1-Adamantylmethyl)-4-[4-[4-(3-ethoxyphenyl)-3-methylbenzoyl]piperazin-1-yl]benzamide]

ASMS ratio (%) n = 1 [1]: 3.8% | ASMS ratio (%) n = 2 [1]: 2.1%
Molecule: CCOc1cccc(-c2ccc(C(=O)N3CCN(c4ccc(C(=O)Nc5ccc(OC)cc5)cc4)CC3)cc2F)c1 [B1O027-01, 4-[4-[4-(3-Ethoxyphenyl)-3-fluorobenzoyl]piperazin-1-yl]-N-(4-methoxyphenyl)benzamide]

ASMS ratio (%) n = 1 [1]: 2.0% | ASMS ratio (%) n = 2 [1]: 3.7%
Molecule: CCOc1cccc(-c2ccc(C(=O)N3CCN(c4ccc(C(=O)N(CC)CC)nn4)CC3)c3ccccc23)c1 [B4J013-01, 6-[4-[4-(3-Ethoxyphenyl)naphthalene-1-carbonyl]piperazin-1-yl]-N,N-diethylpyridazine-3-carboxamide]

ASMS ratio (%) n = 1 (AS-MS, mixture library, Bcl-2): 0.0% | ASMS ratio (%) n = 2 (AS-MS, mixture library, Bcl-2): 0.0%
Molecule: CCOc1cccc(-c2ccc(C(=O)N3CCN(c4ccc(C(=O)NS(=O)(=O)c5ccc(NCCSc6ccccc6)c([N+](=O)[O-])c5)nn4)CC3)c3ccccc23)c1 [B2Q013-01, 6-[4-[4-(3-Ethoxyphenyl)naphthalene-1-carbonyl]piperazin-1-yl]-N-[3-nitro-4-(2-phenylsulfanylethylamino)phenyl]sulfonylpyridazine-3-carboxamide]

ASMS ratio (%) n = 1 [2]: 3.6% | ASMS ratio (%) n = 2 [2]: −7.8%
Molecule: CCOc1cccc(-c2csc(CN3CCN(c4ccc(C(=O)NCC56CC7CC(CC(C7)C5)C6)cc4)CC3)c2)c1 [B1A067-01, N-(1-Adamantylmethyl)-4-[4-[[4-(3-ethoxyphenyl)thiophen-2-yl]methyl]piperazin-1-yl]benzamide]

ASMS ratio (%) n = 1 (AS-MS, mixture library, Bcl-2): 11.6% | ASMS ratio (%) n = 2 (AS-MS, mixture library, Bcl-2): 17.8%
Molecule: CCOc1cccc(-c2ccc(C(=O)N3CCN(c4ccc(C(=O)NS(=O)(=O)CC56CC7CC(CC(C7)C5)C6)nn4)CC3)c3ccccc23)c1 [B2A013-01, N-(1-Adamantylmethylsulfonyl)-6-[4-[4-(3-ethoxyphenyl)naphthalene-1-carbonyl]piperazin-1-yl]pyridazine-3-carboxamide]

Second part, the molecule before the results:

Molecule: CCOc1cncc(-c2ccc(C(=O)N3CCN(c4ccc(C(=O)N(CC)CC)cc4)CC3)c3ccccc23)c1 [B4J036-01, 4-[4-[4-(5-Ethoxypyridin-3-yl)naphthalene-1-carbonyl]piperazin-1-yl]-N,N-diethylbenzamide]
ASMS ratio (%) n = 1 [1]: −0.3% | ASMS ratio (%) n = 2 [1]: −1.6%

Molecule: CCOc1cncc(-c2ccc(CN3CCN(c4ccc(C(=O)NS(=O)(=O)c5ccc(NCCSc6ccccc6)c(C(F)(F)F)c5)cc4)CC3)c(CC)c2)c1 [B2R050-01, 4-[4-[[4-(5-Ethoxypyridin-3-yl)-2-ethylphenyl]methyl]piperazin-1-yl]-N-[4-(2-phenylsulfanylethylamino)-3-(trifluoromethyl)phenyl]sulfonylbenzamide]
ASMS ratio (%) (n = 1): 0.0% | ASMS ratio (%) (n = 2): 0.0%

Molecule: 6-[4-[[3-(5-Ethoxypyridin-3-yl)-5-propan-2-yloxyphenyl]methyl]piperazin-1-yl]-N-propylpyridazine-3-carboxamide [B1M066-01]
ASMS ratio (%) n = 1 [2]: 0.0% | ASMS ratio (%) n = 2 [2]: 4.4%

Molecule: CCOc1cncc(-c2ccc(CN3CCN(c4ccc(C(=O)NS(=O)(=O)c5ccc(NCCSc6ccccc6)c(C(F)(F)F)c5)cc4)CC3)c(OC)c2)c1 [B2R054-01, 4-[4-[[4-(5-Ethoxypyridin-3-yl)-2-methoxyphenyl]methyl]piperazin-1-yl]-N-[4-(2-phenylsulfanylethylamino)-3-(trifluoromethyl)phenyl]sulfonylbenzamide]
ASMS ratio (%) (n = 1): 3.3% | ASMS ratio (%) (n = 2): −0.8%

Molecule: 6-[4-[[2-(3-Ethoxyphenyl)phenyl]methyl]piperazin-1-yl]-N-propylpyridazine-3-carboxamide [B1M042-01]
ASMS ratio (%) n = 1 [2]: 0.0% | ASMS ratio (%) n = 2 [2]: 0.0%

Molecule: CCOc1cncc(-c2ccc(CN3CCN(c4ccc(C(=O)NCC56CC7CC(CC(C7)C5)C6)cc4)CC3)c3ccccc23)c1 [B1A066-01, N-(1-Adamantylmethyl)-4-[4-[[4-(5-ethoxypyridin-3-yl)naphthalen-1-yl]methyl]piperazin-1-yl]benzamide]
ASMS ratio (%) n = 1 [2]: 8.2% | ASMS ratio (%) n = 2 [2]: 7.7%

Molecule: CCOc1cncc(-c2csc(C(=O)N3CCN(c4ccc(C(=O)N(C)CC56CC7CC(CC(C7)C5)C6)cc4)CC3)c2)c1 [B3A024-01, N-(1-Adamantylmethyl)-4-[4-[4-(5-ethoxypyridin-3-yl)thiophene-2-carbonyl]piperazin-1-yl]-N-methylbenzamide]
ASMS ratio (%) n = 1 [1]: 1.6% | ASMS ratio (%) n = 2 [1]: −0.4%

Molecule: CCOc1cncc(-c2cnn(-c3cc(C(=O)N4CCN(c5ccc(C(=O)NCC(F)(F)F)cc5)CC4)cc(C(F)(F)F)c3)c2)c1 [B1K044-01, 4-[4-[3-[4-(5-Ethoxypyridin-3-yl)pyrazol-1-yl]-5-(trifluoromethyl)benzoyl]piperazin-1-yl]-N-(2,2,2-trifluoroethyl)benzamide]
ASMS ratio (%) n = 1 [2]: 2.6% | ASMS ratio (%) n = 2 [2]: 1.0%

Molecule: CCOc1cccc(-c2cc(OC)c(CN3CCN(c4ccc(C(=O)NS(=O)(=O)c5ccc(NCCSc6ccccc6)c([N+](=O)[O-])c5)nn4)CC3)c(OC)c2)c1 [B2Q085-01, 6-[4-[[4-(3-Ethoxyphenyl)-2,6-dimethoxyphenyl]methyl]piperazin-1-yl]-N-[3-nitro-4-(2-phenylsulfanylethylamino)phenyl]sulfonylpyridazine-3-carboxamide]
ASMS ratio (%) n = 1 (AS-MS, mixture library, Bcl-2): 14.9% | ASMS ratio (%) n = 2 (AS-MS, mixture library, Bcl-2): 0.7%

Molecule: CCOc1cncc(-c2cc(CN3CCN(c4ccc(C(=O)NS(=O)(=O)CCC(F)(F)F)cc4)CC3)cc(C(F)(F)F)c2)c1 [B2N062-01, 4-[4-[[3-(5-Ethoxypyridin-3-yl)-5-(trifluoromethyl)phenyl]methyl]piperazin-1-yl]-N-(3,3,3-trifluoropropylsulfonyl)benzamide]
ASMS ratio (%) (n = 1): 0.0% | ASMS ratio (%) (n = 2): 0.0%

Molecule: CCOc1cccc(C#Cc2cncc(C(=O)N3CCN(c4ccc(C(=O)NCC56CC7CC(CC(C7)C5)C6)cc4)CC3)c2)c1 [B1A031-01, N-(1-Adamantylmethyl)-4-[4-[5-[2-(3-ethoxyphenyl)ethynyl]pyridine-3-carbonyl]piperazin-1-yl]benzamide]
ASMS ratio (%) n = 1 [2]: 6.9% | ASMS ratio (%) n = 2 [2]: −1.8%

Reference: patent US20240132431A1, “METHOD FOR ALKYLATING ACIDIC FUNCTIONAL GROUP” (Chugai Seiyaku Kabushiki Kaisha, priority 2021, published 2024)
